Data: ChEMBL document CHEMBL1125472, “5-lipoxygenase: properties, pharmacology, and the quinolinyl(bridged)aryl class of inhibitors” (J Med Chem, 1992)

Assays:
RBL-1 [1] = assay: The compound was tested for inhibitory activity in rat RBL-1 cells; format: functional, cell-based
[2] = target: T1, Prostaglandin G/H synthase (cyclooxygenase) (Mus musculus, UniProt P22437+Q05769); assay: The compound was tested for inhibitory activity against Prostaglandin G/H synthase in mouse macrophage; format: protein assay
T1 sequence (P22437 whole entry): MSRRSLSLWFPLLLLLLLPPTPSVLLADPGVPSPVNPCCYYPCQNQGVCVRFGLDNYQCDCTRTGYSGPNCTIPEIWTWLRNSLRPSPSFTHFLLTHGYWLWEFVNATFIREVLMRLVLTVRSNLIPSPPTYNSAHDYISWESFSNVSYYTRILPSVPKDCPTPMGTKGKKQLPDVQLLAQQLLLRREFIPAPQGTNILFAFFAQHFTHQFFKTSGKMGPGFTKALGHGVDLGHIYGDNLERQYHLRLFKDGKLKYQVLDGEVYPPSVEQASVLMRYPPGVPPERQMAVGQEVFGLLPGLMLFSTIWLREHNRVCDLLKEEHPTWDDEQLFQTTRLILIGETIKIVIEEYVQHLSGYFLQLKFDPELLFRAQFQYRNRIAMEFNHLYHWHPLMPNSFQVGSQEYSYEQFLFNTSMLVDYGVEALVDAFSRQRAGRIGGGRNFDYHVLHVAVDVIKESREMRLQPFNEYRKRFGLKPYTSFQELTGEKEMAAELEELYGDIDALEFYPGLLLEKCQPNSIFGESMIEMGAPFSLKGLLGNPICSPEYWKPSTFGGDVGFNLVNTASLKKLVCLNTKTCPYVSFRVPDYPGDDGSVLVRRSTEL
T1 sequence (Q05769 whole entry): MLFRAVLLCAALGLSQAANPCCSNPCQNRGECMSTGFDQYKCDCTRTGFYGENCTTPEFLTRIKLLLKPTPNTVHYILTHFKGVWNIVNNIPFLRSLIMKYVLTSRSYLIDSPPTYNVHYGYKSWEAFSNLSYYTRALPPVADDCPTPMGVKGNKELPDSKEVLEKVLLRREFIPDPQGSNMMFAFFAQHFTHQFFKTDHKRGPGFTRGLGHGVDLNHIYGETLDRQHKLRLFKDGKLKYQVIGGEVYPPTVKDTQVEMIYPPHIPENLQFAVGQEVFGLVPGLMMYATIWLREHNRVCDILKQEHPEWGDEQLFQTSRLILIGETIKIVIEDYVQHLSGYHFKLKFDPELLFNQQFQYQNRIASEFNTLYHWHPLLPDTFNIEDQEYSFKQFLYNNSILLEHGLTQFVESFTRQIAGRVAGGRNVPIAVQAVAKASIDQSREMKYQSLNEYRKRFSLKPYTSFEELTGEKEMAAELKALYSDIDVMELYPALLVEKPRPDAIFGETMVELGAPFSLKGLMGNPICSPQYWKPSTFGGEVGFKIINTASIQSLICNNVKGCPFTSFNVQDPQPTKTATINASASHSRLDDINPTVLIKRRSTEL

RBL-1 [3] = assay: The compound was tested for inhibitory activity against 5-HETE synthesis in rat RBL-1; format: functional, cell-based
Cyclooxygenase = target: T2, Cyclooxygenase (Rattus norvegicus, UniProt P35355+Q63921); assay: The compound was tested for inhibitory activity against Prostaglandin G/H synthase using rat polymorphonuclear leukocytes[PMNS]
T2 sequence (P35355 whole entry): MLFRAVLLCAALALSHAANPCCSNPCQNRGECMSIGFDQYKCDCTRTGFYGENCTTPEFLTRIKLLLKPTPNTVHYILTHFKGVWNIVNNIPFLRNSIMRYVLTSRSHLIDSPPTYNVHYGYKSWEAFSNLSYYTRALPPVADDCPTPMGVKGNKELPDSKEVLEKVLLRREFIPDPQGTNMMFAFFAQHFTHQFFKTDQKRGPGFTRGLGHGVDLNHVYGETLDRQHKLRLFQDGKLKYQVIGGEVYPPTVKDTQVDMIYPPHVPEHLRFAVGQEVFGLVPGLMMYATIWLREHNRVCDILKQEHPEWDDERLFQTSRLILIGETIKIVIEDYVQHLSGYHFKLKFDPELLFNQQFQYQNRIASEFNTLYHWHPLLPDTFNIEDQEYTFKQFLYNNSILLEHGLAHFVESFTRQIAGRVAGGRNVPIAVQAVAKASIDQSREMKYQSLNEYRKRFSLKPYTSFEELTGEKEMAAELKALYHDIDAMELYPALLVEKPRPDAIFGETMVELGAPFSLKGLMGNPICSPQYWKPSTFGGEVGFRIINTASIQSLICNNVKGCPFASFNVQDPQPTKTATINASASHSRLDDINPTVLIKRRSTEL
T2 sequence (Q63921 whole entry): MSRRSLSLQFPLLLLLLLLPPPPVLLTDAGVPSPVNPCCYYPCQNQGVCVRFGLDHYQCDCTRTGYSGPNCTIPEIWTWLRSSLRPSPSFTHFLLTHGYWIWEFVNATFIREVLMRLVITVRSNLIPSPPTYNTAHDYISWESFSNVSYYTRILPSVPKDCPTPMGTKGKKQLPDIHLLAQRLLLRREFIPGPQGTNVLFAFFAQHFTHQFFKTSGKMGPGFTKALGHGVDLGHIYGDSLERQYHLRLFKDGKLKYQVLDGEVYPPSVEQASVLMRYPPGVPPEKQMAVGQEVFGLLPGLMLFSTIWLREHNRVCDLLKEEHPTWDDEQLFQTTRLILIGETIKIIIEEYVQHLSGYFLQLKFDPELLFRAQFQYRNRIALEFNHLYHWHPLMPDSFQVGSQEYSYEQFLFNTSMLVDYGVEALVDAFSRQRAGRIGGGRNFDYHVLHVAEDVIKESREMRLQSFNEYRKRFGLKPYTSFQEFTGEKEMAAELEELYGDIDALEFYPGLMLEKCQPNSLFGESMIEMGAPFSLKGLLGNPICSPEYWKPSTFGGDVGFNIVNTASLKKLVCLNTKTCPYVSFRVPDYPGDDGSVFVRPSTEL

[4] = target: T3, Polyunsaturated fatty acid 5-lipoxygenase (Rattus norvegicus, UniProt P12527); assay: The compound was tested for inhibitory activity against 5-lipoxygenase using rat polymorphonuclear leukocytes[PMNS]
T3 sequence (P12527 whole entry): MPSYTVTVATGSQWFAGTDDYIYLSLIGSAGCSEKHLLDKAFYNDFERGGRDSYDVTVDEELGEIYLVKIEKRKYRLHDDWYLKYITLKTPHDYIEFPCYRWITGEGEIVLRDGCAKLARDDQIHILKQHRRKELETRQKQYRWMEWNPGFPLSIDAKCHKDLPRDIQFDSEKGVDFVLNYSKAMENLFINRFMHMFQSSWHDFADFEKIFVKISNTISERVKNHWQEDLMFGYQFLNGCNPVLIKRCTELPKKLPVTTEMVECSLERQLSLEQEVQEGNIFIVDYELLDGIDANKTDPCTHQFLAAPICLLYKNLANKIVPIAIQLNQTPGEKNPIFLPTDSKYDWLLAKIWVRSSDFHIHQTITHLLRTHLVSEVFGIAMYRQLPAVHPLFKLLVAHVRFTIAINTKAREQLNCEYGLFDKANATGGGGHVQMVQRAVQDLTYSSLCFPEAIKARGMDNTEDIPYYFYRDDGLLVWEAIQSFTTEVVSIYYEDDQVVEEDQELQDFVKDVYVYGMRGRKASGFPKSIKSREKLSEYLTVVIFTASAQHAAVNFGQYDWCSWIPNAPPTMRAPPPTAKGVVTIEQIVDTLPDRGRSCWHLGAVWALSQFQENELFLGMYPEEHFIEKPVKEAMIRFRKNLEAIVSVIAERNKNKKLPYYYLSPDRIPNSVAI

Cavia porcellus [5] = assay: The compound was tested for inhibition of LTD4-induced bronchoconstriction in guinea pig at 50 mg/kg (in vivo); format: functional; conditions: read-out: Inhibition
Rattus norvegicus [6] = species: Rattus norvegicus; assay: The compound was tested for inhibitory activity against […] synthesis in rat macrophages; format: functional
[7] = target: T3, Polyunsaturated fatty acid 5-lipoxygenase; assay: The compound was tested for inhibitory activity against 5-lipoxygenase in rat RBL-1; format: cell-based
Mus musculus [8] = assay: The effective dose for inhibition of mouse zymosan peritonitis (in vivo); format: functional
[9] = target: T3, Polyunsaturated fatty acid 5-lipoxygenase; assay: The compound was tested for inhibitory activity against 5-lipoxygenase in rat polymorphonuclear leukocytes[PMNS] (in vitro); format: cell-based
[10] = target: Cyclooxygenase (Rattus norvegicus) (UniProt P35355+Q63921); assay: The compound was tested for inhibition of Prostaglandin G/H synthase in rat polymorphonuclear leukocytes[PMNS] at 100 uM concentration; format: functional, cell-based
Rattus norvegicus [11] = assay: The effective dose after peroral administration for antiinflammatory activity against rat carrageenan edema; format: functional; conditions: po
[12] = target: T4, Polyunsaturated fatty acid 5-lipoxygenase (Homo sapiens, UniProt P09917); assay: The compound was tested for inhibitory activity against 5-lipoxygenase in human polymorphonuclear leukocytes[PMNS]; format: cell-based
T4 sequence (P09917 whole entry): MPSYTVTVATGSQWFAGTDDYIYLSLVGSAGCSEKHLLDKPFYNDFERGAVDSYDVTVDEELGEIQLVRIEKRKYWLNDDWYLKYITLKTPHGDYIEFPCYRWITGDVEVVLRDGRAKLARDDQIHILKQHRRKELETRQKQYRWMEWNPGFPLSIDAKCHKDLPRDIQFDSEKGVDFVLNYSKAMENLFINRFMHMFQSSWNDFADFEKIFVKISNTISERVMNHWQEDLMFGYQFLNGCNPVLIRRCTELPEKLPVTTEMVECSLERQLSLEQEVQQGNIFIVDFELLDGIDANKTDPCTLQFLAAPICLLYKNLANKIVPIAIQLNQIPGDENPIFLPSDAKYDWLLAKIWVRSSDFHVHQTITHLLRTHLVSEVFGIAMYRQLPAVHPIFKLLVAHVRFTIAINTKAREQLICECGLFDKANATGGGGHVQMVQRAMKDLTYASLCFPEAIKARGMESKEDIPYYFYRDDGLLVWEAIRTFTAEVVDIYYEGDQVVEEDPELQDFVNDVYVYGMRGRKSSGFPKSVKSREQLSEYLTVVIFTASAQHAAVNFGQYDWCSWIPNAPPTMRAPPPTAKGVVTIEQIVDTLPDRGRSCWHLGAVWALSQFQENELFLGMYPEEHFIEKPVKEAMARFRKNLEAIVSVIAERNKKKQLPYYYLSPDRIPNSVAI

RBL-2H3 [13] = assay: The compound was tested for inhibition of translocation in SAR in RBL-2H3 cells; format: functional, Rattus norvegicus
Mus musculus [14] = species: Mus musculus; assay: The compound was tested for inhibitory activity against LTC4 synthesis in mouse peritoneal macrophages; format: functional
Mus musculus [15] = species: Mus musculus; assay: The compound was tested for inhibition of prostaglandin E2[PGE2] synthesis; format: functional, organism-based
Mus musculus [16] = species: Mus musculus; assay: The compound was tested for inhibition of thromboxane B2 synthesis; format: functional, organism-based
RBL-2H3 [17] = assay: The compound was tested for inhibition LTC4 synthesis; format: functional, Rattus norvegicus
[18] = target: T5, Polyunsaturated fatty acid 5-lipoxygenase (Rattus norvegicus) (UniProt P12527); assay: The compound was tested for inhibition of isolated 5-Lipoxygenase
T5 sequence (whole entry): T3 sequence (P12527 whole entry)

Rattus norvegicus [19] = species: Rattus norvegicus; assay: The compound was tested for inhibitory activity against synthesis of immunoreactive LTB4; format: functional
Rattus norvegicus [20] = species: Rattus norvegicus; assay: The compound was tested for inhibitory activity against synthesis of immunoreactive thromboxane B2 in rat PMNs; format: functional
Cavia porcellus [21] = species: Cavia porcellus; assay: The compound was tested for blocking of LTD4-induced contractions of guinea pig trachea; format: functional; conditions: read-out: pA2 (converted)
Mus musculus [22] = species: Mus musculus; assay: The compound was tested for inhibitory activity which inhibits LTC4 synthesis by zymosan-activated mouse peritoneal macrophages; format: functional
[23] = The compound was tested for inhibitory activity which inhibits prostaglandin E2[PGE2] synthesis by zymosan-activated mouse peritoneal macrophages; format: functional
Cavia porcellus [24] = assay: The inhibitory dose for antigen induced bronchoconstriction in guinea pig after peroral administration; format: functional; conditions: po, read-out: ID50 (the source's name)
Rattus norvegicus [25] = assay: The compound was tested for inhibition in rat carrageenan paw edema assay; format: functional
[26] = Oral bioavailability was determined; range 49-102%; format: ADME, organism-based; conditions: in vivo, read-out: Bioavailabiility
[27] = Plasma half-life was determined; 0.5-17.7h; format: ADME

For `C[C@H](OCC(=O)O)[C@@H](C)Sc1cc(C(C)(C)C)c(O)c(C(C)(C)C)c1`, the IC50 (RBL-1 [1]) was 3.7 µM.

`Cc1c(CC(=O)O)c2cc(OCc3ccc4ccccc4n3)ccc2n1Cc1ccc(Cl)cc1` showed an IC50 [2] of 0.004 µM.

Molecule `CC1=C(C)C(=O)C(Cc2cccnc2)=C(C)C1=O` has an IC50 (RBL-1 [3]) of 0.062 µM.

In the case of `Oc1cccc(OCc2ccc3ccccc3n2)c1`, the IC50 (Cyclooxygenase) is reported as over 100 µM, the IC50 [4] is reported as 6.07 µM and the inhibition in vivo at 50 mg/kg (Cavia porcellus [5]) is reported as 82%.

`CC1=C(C)C(=O)C(CCCCC#CCCCC#CCO)=C(C)C1=O` [DOCEBENONE] gave an IC50 (Rattus norvegicus [6]) of 0.08 µM.

`CCN1C(=S)N(c2ccc(N3CCN(c4ccc(O)cc4)CC3)cc2)C(=O)C1(C)C` gave an IC50 [7] of 0.5 µM.

Work on `CC(C(=O)O)c1ccc2cc(OCc3ccc4ccccc4n3)ccc2c1` (stereo not drawn) yielded an ED50 (Mus musculus [8]) of 11.1 mg/kg, an IC50 [9] of 0.13 µM and an Inhibition [10] of 30%. For the same molecule, the ED50 (Rattus norvegicus [11]) was 75 mg/kg.

`O=C(O)c1ccc(CN(Cc2cccc(F)c2)c2ccc(OCc3ccc4ccccc4n3)cc2)cc1` showed an IC50 [12] of 0.02 µM.

With `COC(=O)CCC(=O)N(O)c1cccc(OCc2ccc3ccccc3n2)c1` the Inhibition (RBL-2H3 [13]) was 750 nM, the IC50 (Mus musculus [14]) was 0.45 µM and the IC50 (Mus musculus [15]) was 7.2 µM. The IC50 (Mus musculus [16]) was 4.52 µM, the Inhibition (RBL-2H3 [17]) was 780 nM and the Inhibition [18] was 1530 nM.

`O=S(=O)(Nc1cccc(OCc2ccc3ccccc3n2)c1)C(F)(F)F` [RITOLUKAST] gave an IC50 (Rattus norvegicus [19]) of 4.6 µM, an IC50 (Rattus norvegicus [20]) of 3.3 µM and a Kb (Cavia porcellus [21]) of 0.024 µM. For the same molecule, the IC50 (Mus musculus [22]) was 4.4 µM, the IC50 [23] was 4.3 µM and the ED50 (Cavia porcellus [24]) was 0.6 mg/kg. It also gave an Inhibition (Rattus norvegicus [25]) of 20%, a bioavailability [26] of 49% and a half-life [27] of 30 min.
